From paper PMC5566973 (Frontiers in Pharmacology, 2017)

Tests used:
Caco-2 cell monolayers = test: in vitro
Description: (§1) Caco-2, MDCK and MDCK-MRP2 cells were donated by Prof. Yan Xie and Yueming Ma from Shanghai University of Traditional Chinese Medicine. The cells were grown in culture dishes (Corning® Costar, Cambridge, MA, USA) using DMEM supplemented with 10% FBS, 1% NEAA and 1% penicillin-streptomycin solution. The cells were cultured in 5% CO2 and […] with 90% relative humidity at 37°C. The medium was replaced every other day during incubation. The cells were passaged every 3–4 days between 70 and 80% confluence at a 1:5 split ratio using 0.25% trypsin-EDTA. For the transport experiments, the cells from passages between 30 and 45 were seeded at 1 × 10^5 cells/cm^2 onto permeable polycarbonate inserts (0.45 μm pore size, seeding surface of 0.6 cm^2, Millipore, MA, USA) in 24-well plastic plates. The media in the culture plates were changed every other day for the first week after seeding and were replaced daily afterward. […] The cells were used for the transport experiments 21–28 (Caco-2) or 5–7 (MDCK and MDCK-MRP2) days after seeding, and only monolayers with a TEER-value above 420 Ω cm^2 were used during the studies.
(§2) The apical (AP) and basolateral (BL) sides are typical of polarized Caco-2, MDCK and MDCK-MRP2 epithelial cells. Before the experiments, the polarized cell monolayers were washed twice with warm HBSS solution and subsequently preincubated (37°C, 30 min). Afterward, HBSS solution on both sides of the cell monolayers was removed using a mini desktop vacuum pump. […] The final DMSO concentration in the HBSS or drug mixture was below 0.5%. The monolayers were incubated at 37°C, and 100 μL samples were taken at 30, 60, 90, and 120 min from the acceptor compartment and immediately replaced with the same volume of prewarmed fresh blank HBSS. TEER measurements for assessing the membrane integrity took place before and after the experiments.
(§3) The apparent permeability coefficients (Papp) and ER were calculated as Equations (2) and (3): […]
(§4) where dQ/dt is the steady-state flux, A is the membrane surface area, and C0 is the initial drug concentration in the donor compartment. PappBA is the Papp-value measured in BL to AP direction and PappAB is the Papp-value measured in AP to BL direction. It indicated the involvement of an active transport process when the ER-value is above 1.5 (Hubatsch et al., [2007]).

[1] = tested on: ATP (adenosine triphosphate); test: in vitro; conditions: human, Caco-2, ER, Caco-2, 2 μM, + NaN3 10 mM (ATP)
Description: as §1, §2, §3, §4

MRP2 = test: in vitro; conditions: human, Caco-2, ER, Caco-2, 2 μM
Description: as §1, §2, §3, §4

OATPs = test: in vitro; conditions: human, Caco-2, ER, Caco-2, 2 μM, + ES 0.05 mM (OATPs)
Description: as §1, §2, §3, §4

PEPT1 = test: in vitro; conditions: human, Caco-2, ER, Caco-2, 2 μM, + Gly-Sar 10 mM (PEPT1)
Description: as §1, §2, §3, §4

BCRP = test: in vitro; conditions: human, Caco-2, ER, Caco-2, 2 μM
Description: as §1, §2, §3, §4

MDCK cell monolayers = test: in vitro; conditions: 2 μM
Description: as §1, §2, §3, §4

in vitro = test: in vitro
Description: as §1, §2, §3, §4

OATs = test: in vitro; conditions: human, Caco-2, ER, Caco-2, 2 μM, + Cimetidine 0.05 mM (OATs)
Description: as §1, §2, §3, §4

MDR1 = test: in vitro; conditions: human, Caco-2, ER, Caco-2, 2 μM
Description: as §1, §2, §3, §4

Na+/K+-ATPase = test: in vitro; conditions: human, Caco-2, 2 μM, + Sodium vanadate 0.05 mM (Na^+)
Description: as §1, §2, §3, §4

[2] = Caco-2, 2 μM, + Apigenin 0.025 mM (BCRP)
[3] = Caco-2, 2 μM, + Cimetidine 0.05 mM (OATs)
[4] = Caco-2, 2 μM, + ES 0.05 mM (OATPs)
[5] = Caco-2, 2 μM, + Gly-Sar 10 mM (PEPT1)
[6] = Caco-2, 2 μM, + Ko143 0.01 mM (BCRP)
[7] = Caco-2, 2 μM, + MK571 0.05 mM (MRP2)
[8] = Caco-2, 2 μM, + NaN3 10 mM (ATP)
[9] = Caco-2, 2 μM, + Phloretin 0.3 mM (MCTs)
[10] = Caco-2, 2 μM, + Phloridzin 0.5 mM (SGLT1)
[11] = Caco-2, 2 μM, + Probenecid 0.2 mM (MRP2)
[12] = Caco-2, 2 μM, + Quinidine 0.1 mM (MDR1)
[13] = Caco-2, 2 μM, + TEA 5 mM (OCTs/OCTNs)
[14] = Caco-2, 2 μM, + Verapamil 0.1 mM (MDR1)
[15] = Caco-2, 2 μM, Control (no inhibitor or substrate)
[16] = Caco-2, 2 μM, Control (pH 7.4, 37°C, without EDTA)
[17] = Control (pH 7.4, 37°C, without EDTA)
[18] = with EDTA 5 mM, listed as harmaline

## COc1ccc2c3c([nH]c2c1)C(C)=NCC3 [Harmaline]
Caco-2 cell monolayers; Caco-2, 2 μM
  PappAB at pH 7.4 relative to pH 5.5: 3.65 folds
Caco-2 cell monolayers; Caco-2, 2 μM, 4°C
  PappAB: 7.59 ± 0.33^*** 1 × 10^−6 cm/s
Caco-2 cell monolayers; Caco-2, 2 μM, 4°C, listed as harmaline
  PappAB: 7.59 ± 0.33 1 × 10^−6 cm/s
Caco-2 cell monolayers; [2]
  Modulatory effect: −
  PappAB: 27.85 ± 2.09 1 × 10^−6 cm/s
  PappBA: 26.04 ± 1.43 1 × 10^−6 cm/s
Caco-2 cell monolayers; [3]
  Modulatory effect: −
  PappBA: 26.16 ± 1.79 1 × 10^−6 cm/s
Caco-2 cell monolayers; [4]
  Modulatory effect: +
  PappAB: 24.33 ± 0.49 1 × 10^−6 cm/s
  PappBA: 26.41 ± 0.94 1 × 10^−6 cm/s
Caco-2 cell monolayers; [5]
  Modulatory effect: −
  PappAB: 27.73 ± 0.95 1 × 10^−6 cm/s
  PappBA: 26.31 ± 1.18 1 × 10^−6 cm/s
Caco-2 cell monolayers; [6]
  Modulatory effect: −
  PappBA: 26.15 ± 0.48 1 × 10^−6 cm/s
Caco-2 cell monolayers; [7]
  Modulatory effect: −
  PappAB: 27.90 ± 1.31 1 × 10^−6 cm/s
  PappBA: 25.82 ± 0.71 1 × 10^−6 cm/s
Caco-2 cell monolayers; [8]
  Modulatory effect: +
  PappAB: 22.75 ± 2.68^* 1 × 10^−6 cm/s
  PappBA: 26.18 ± 1.02 1 × 10^−6 cm/s
Caco-2 cell monolayers; [9]
  Modulatory effect: −
  PappAB: 27.77 ± 2.14 1 × 10^−6 cm/s
  PappBA: 26.25 ± 0.91 1 × 10^−6 cm/s
Caco-2 cell monolayers; [10]
  Modulatory effect: −
  PappAB: 27.57 ± 2.40 1 × 10^−6 cm/s
  PappBA: 26.07 ± 1.60 1 × 10^−6 cm/s
Caco-2 cell monolayers; [11]
  Modulatory effect: −
  PappAB: 27.22 ± 1.04 1 × 10^−6 cm/s
  PappBA: 26.10 ± 1.02 1 × 10^−6 cm/s
Caco-2 cell monolayers; [12]
  Modulatory effect: −
  PappAB: 27.54 ± 1.35 1 × 10^−6 cm/s
  PappBA: 26.44 ± 1.47 1 × 10^−6 cm/s
Caco-2 cell monolayers; Caco-2, 2 μM, + Sodium vanadate 0.05 mM (Na^+)
  Modulatory effect: +
Caco-2 cell monolayers; [13]
  Modulatory effect: +
  PappBA: 26.75 ± 1.58 1 × 10^−6 cm/s
Caco-2 cell monolayers; [14]
  Modulatory effect: −
  PappAB: 27.32 ± 1.33 1 × 10^−6 cm/s
  PappBA: 25.68 ± 1.55 1 × 10^−6 cm/s
Caco-2 cell monolayers; [15]
  PappAB: 27.48 ± 0.18 1 × 10^−6 cm/s
  PappBA: 26.19 ± 4.02 1 × 10^−6 cm/s
Caco-2 cell monolayers; [16]
  PappAB: 27.72 ± 1.06 1 × 10^−6 cm/s
  PappBA: 26.42 ± 0.49 1 × 10^−6 cm/s
Caco-2 cell monolayers; Caco-2, 2 μM, with EDTA 5 mM
  PappAB: 35.23 ± 2.68^* 1 × 10^−6 cm/s
  PappBA: 39.57 ± 2.10^* 1 × 10^−6 cm/s
Caco-2 cell monolayers; Caco-2, initial concentration 2 μM
  PappAB: 27.72 ± 1.06 1 × 10^−6 cm/s
Caco-2 cell monolayers; Caco-2 and MDCK, 1, 2, and 5 μM
  ER-values at the tested concentrations: < 1.5
[1]
  efflux ratio: 1.15
MRP2; + MK571 0.05 mM (MRP2)
  efflux ratio: 0.93
MRP2; + Probenecid 0.2 mM (MRP2)
  efflux ratio: 0.96
OATPs
  efflux ratio: 1.12
PEPT1
  efflux ratio: 0.95
BCRP; + Apigenin 0.025 mM (BCRP)
  efflux ratio: 0.94
BCRP; + Ko143 0.01 mM (BCRP)
  efflux ratio: 0.93
MDCK cell monolayers
  PappAB at 37°C relative to 4°C: 3.77 folds
  PappAB at pH 7.4 relative to pH 5.5: 1.56 folds
MDCK cell monolayers; 4°C
  PappAB: 5.40 ± 0.99^*** 1 × 10^−6 cm/s
  PappBA: 6.65 ± 0.64^*** 1 × 10^−6 cm/s
MDCK cell monolayers; [17]
  PappAB: 20.36 ± 1.82 1 × 10^−6 cm/s
  PappBA: 21.03 ± 2.11 1 × 10^−6 cm/s
MDCK cell monolayers; with EDTA 5 mM
  PappAB: 29.43 ± 1.45^* 1 × 10^−6 cm/s
  PappBA: 26.34 ± 0.93^* 1 × 10^−6 cm/s
MDCK cell monolayers; [18]
  PappAB: 29.43 ± 1.45 1 × 10^−6 cm/s
  PappBA: 26.34 ± 0.93 1 × 10^−6 cm/s
In vitro; dog, MDCK, ER, 2 μM, 4°C
  efflux ratio: 1.23
In vitro; dog, MDCK, ER, 2 μM, with EDTA 5 mM
  efflux ratio: 0.9
In vitro; dog, MDCK, ER, initial concentration 1 μM
  efflux ratio: 1.23
In vitro; dog, MDCK, ER, initial concentration 2 μM
  efflux ratio: 1.03
In vitro; dog, MDCK, ER, initial concentration 5 μM
  efflux ratio: 1.16
In vitro; dog, MDCK, PappAB, initial concentration 1 μM
  Papp A→B: 15.8 ± 1.76 ×10⁻⁶ cm/s
In vitro; dog, MDCK, PappAB, initial concentration 2 μM
  Papp A→B: 20.4 ± 1.82 ×10⁻⁶ cm/s
In vitro; dog, MDCK, PappAB, initial concentration 5 μM
  Papp A→B: 21.2 ± 1.32 ×10⁻⁶ cm/s
In vitro; dog, MDCK, PappBA, initial concentration 1 μM
  Papp B→A: 19.5 ± 2.25 ×10⁻⁶ cm/s
In vitro; dog, MDCK, PappBA, initial concentration 2 μM
  Papp B→A: 21 ± 2.11 ×10⁻⁶ cm/s
In vitro; dog, MDCK, PappBA, initial concentration 5 μM
  Papp B→A: 24.5 ± 2.54 ×10⁻⁶ cm/s
In vitro; dog, MDCK, pH 5.5, ER, 2 μM, pH 5.5
  efflux ratio: 1.18
In vitro; dog, MDCK, pH 5.5, PappAB, 2 μM, pH 5.5
  Papp A→B: 13 ± 2.54 ×10⁻⁶ cm/s
In vitro; dog, MDCK, pH 5.5, PappBA, 2 μM, pH 5.5
  Papp B→A: 15.4 ± 0.91 ×10⁻⁶ cm/s
In vitro; dog, MDCK, pH 7.4, ER, 2 μM, Control (pH 7.4, 37°C, without EDTA)
  efflux ratio: 1.03
In vitro; human, Caco-2, ER, Caco-2, 2 μM, 4°C
  efflux ratio: 1.15
In vitro; human, Caco-2, ER, Caco-2, 2 μM, Control (no inhibitor or substrate)
  efflux ratio: 0.95
In vitro; human, Caco-2, ER, Caco-2, 2 μM, with EDTA 5 mM
  efflux ratio: 1.12
In vitro; human, Caco-2, ER, Caco-2, initial concentration 1 μM
  efflux ratio: 0.93
In vitro; human, Caco-2, ER, Caco-2, initial concentration 2 μM
  efflux ratio: 0.95
In vitro; human, Caco-2, ER, Caco-2, initial concentration 5 μM
  efflux ratio: 1.03
In vitro; human, Caco-2, PappAB, Caco-2, initial concentration 1 μM
  Papp A→B: 27.4 ± 1.44 ×10⁻⁶ cm/s
In vitro; human, Caco-2, PappAB, Caco-2, initial concentration 5 μM
  Papp A→B: 30.1 ± 3.01 ×10⁻⁶ cm/s
In vitro; human, Caco-2, PappBA, Caco-2, 2 μM, 4°C
  Papp B→A: 8.71 ± 1.83 ×10⁻⁶ cm/s
In vitro; human, Caco-2, PappBA, Caco-2, initial concentration 1 μM
  Papp B→A: 25.6 ± 1.95 ×10⁻⁶ cm/s
In vitro; human, Caco-2, PappBA, Caco-2, initial concentration 2 μM
  Papp B→A: 26.4 ± 0.49 ×10⁻⁶ cm/s
In vitro; human, Caco-2, PappBA, Caco-2, initial concentration 5 μM
  Papp B→A: 31 ± 1.4 ×10⁻⁶ cm/s
In vitro; human, Caco-2, pH 5.5, ER, Caco-2, 2 μM, pH 5.5
  efflux ratio: 0.88
In vitro; human, Caco-2, pH 5.5, PappAB, Caco-2, 2 μM, pH 5.5
  Papp A→B: 7.6 ± 0.74 ×10⁻⁶ cm/s
In vitro; human, Caco-2, pH 5.5, PappBA, Caco-2, 2 μM, pH 5.5
  Papp B→A: 6.72 ± 0.76 ×10⁻⁶ cm/s
In vitro; human, Caco-2, pH 7.4, ER, Caco-2, 2 μM, Control (pH 7.4, 37°C, without EDTA)
  efflux ratio: 0.95
OATs
  efflux ratio: 0.97
MDR1; + Quinidine 0.1 mM (MDR1)
  efflux ratio: 0.96
MDR1; + Verapamil 0.1 mM (MDR1)
  efflux ratio: 0.94
Na+/K+-ATPase; Caco-2, ER
  efflux ratio: 1.27
Na+/K+-ATPase; Caco-2, PappBA
  Papp B→A: 26.9 ± 1.26 ×10⁻⁶ cm/s
